Measurements from PubChem BioAssay (NCI).
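Results reflect a 48-hour exposure of cells in 96-well plates to compound at five concentrations. Abbreviation: GI50, concentration required for 50% inhibition of growth. Definition used: TGI = concentration required for complete inhibition of growth.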

Assays:
Test in all cases: NCI anticancer screen, dose series, 48 h
MALME-3M melanoma = system: MALME-3M melanoma
TK-10 renal = system: TK-10 renal
SF-268 CNS = system: SF-268 CNS
UACC-62 melanoma = system: UACC-62 melanoma
RPMI-8226 leukemia = system: RPMI-8226 leukemia
MCF7 breast = system: MCF7 breast
NCI/ADR-RES ovarian = system: NCI/ADR-RES ovarian
T-47D breast = system: T-47D breast
MDA-MB-435 = system: MDA-MB-435
MDA-MB-468 breast = system: MDA-MB-468 breast
HOP-62 NSCLC = system: HOP-62 NSCLC
LOX IMVI melanoma = system: LOX IMVI melanoma
CCRF-CEM leukemia = system: CCRF-CEM leukemia
HS 578T breast = system: HS 578T breast
SF-295 CNS = system: SF-295 CNS
IGROV1 ovarian = system: IGROV1 ovarian
PC-3 prostate = system: PC-3 prostate
HCT-15 colon = system: HCT-15 colon
MOLT-4 leukemia = system: MOLT-4 leukemia
NCI-H23 lung = system: NCI-H23 lung
HT29 colon = system: HT29 colon
OVCAR-8 ovarian = system: OVCAR-8 ovarian
DU-145 prostate = system: DU-145 prostate
SK-OV-3 ovarian = system: SK-OV-3 ovarian
SR leukemia = system: SR leukemia
SW-620 colon = system: SW-620 colon
HCC-2998 colon = system: HCC-2998 colon
RXF 393 renal = system: RXF 393 renal
UACC-257 melanoma = system: UACC-257 melanoma
SK-MEL-5 melanoma = system: SK-MEL-5 melanoma
EKVX NSCLC = system: EKVX NSCLC
HOP-92 NSCLC = system: HOP-92 NSCLC
NCI-H460 lung = system: NCI-H460 lung
M14 melanoma = system: M14 melanoma
SNB-19 CNS = system: SNB-19 CNS
KM12 colon = system: KM12 colon
HL-60(TB) leukemia = system: HL-60(TB) leukemia
K-562 leukemia = system: K-562 leukemia
HCT-116 colon = system: HCT-116 colon
BT-549 breast = system: BT-549 breast
OVCAR-5 ovarian = system: OVCAR-5 ovarian
OVCAR-3 ovarian = system: OVCAR-3 ovarian
CAKI-1 renal = system: CAKI-1 renal
SK-MEL-28 melanoma = system: SK-MEL-28 melanoma
COLO 205 colon = system: COLO 205 colon
U251 CNS = system: U251 CNS
A549 NSCLC = system: A549 NSCLC
OVCAR-4 ovarian = system: OVCAR-4 ovarian
SN12C renal = system: SN12C renal
A498 renal = system: A498 renal
NCI-H522 lung = system: NCI-H522 lung
ACHN renal = system: ACHN renal
786-0 renal = system: 786-0 renal
SF-539 CNS = system: SF-539 CNS
NCI-H226 lung = system: NCI-H226 lung

`Cc1[nH]nc2ccc3nc(-c4cn[nH]c4C(F)(F)F)c4c(c3c12)CCCC4` gave a GI50 (MALME-3M melanoma) of 4.04 µM, a TGI (MALME-3M melanoma) of 13.6 µM and a GI50 (TK-10 renal) of 2.29 µM. For the same compound, the TGI (TK-10 renal) was 11.7 µM, the GI50 (SF-268 CNS) was 2.99 µM and the TGI (SF-268 CNS) was 13.5 µM. For the same compound, the GI50 (UACC-62 melanoma) was 2.09 µM, the TGI (UACC-62 melanoma) was 6.64 µM and the GI50 (RPMI-8226 leukemia) was 2.49 µM. For the same compound, the TGI (RPMI-8226 leukemia) was 30.3 µM, the GI50 (MCF7 breast) was 4.03 µM and the TGI (MCF7 breast) was 16.8 µM. For the same compound, the GI50 (NCI/ADR-RES ovarian) was 11.7 µM, the TGI (NCI/ADR-RES ovarian) was 30.1 µM and the GI50 (T-47D breast) was 2.4 µM. It also gave a TGI (T-47D breast) of 12.1 µM, a GI50 (MDA-MB-435) of 3.01 µM and a TGI (MDA-MB-435) of 11.2 µM. The GI50 (MDA-MB-468 breast) was 2.46 µM, the TGI (MDA-MB-468 breast) was 8.78 µM and the GI50 (HOP-62 NSCLC) was 3.53 µM. The TGI (HOP-62 NSCLC) was 12.5 µM, the GI50 (LOX IMVI melanoma) was 3.55 µM and the TGI (LOX IMVI melanoma) was 13.1 µM. It also gave a GI50 (CCRF-CEM leukemia) of 3.49 µM, a TGI (CCRF-CEM leukemia) of 19.1 µM and a GI50 (HS 578T breast) of 2.14 µM. For the same compound, the TGI (HS 578T breast) was 5.19 µM, the GI50 (SF-295 CNS) was 3.34 µM and the TGI (SF-295 CNS) was 14 µM. It also gave a GI50 (IGROV1 ovarian) of 2.61 µM, a TGI (IGROV1 ovarian) of 7.43 µM and a GI50 (PC-3 prostate) of 3.94 µM. For the same compound, the TGI (PC-3 prostate) was 17.1 µM, the GI50 (HCT-15 colon) was 2.75 µM and the TGI (HCT-15 colon) was 9.34 µM. The GI50 (MOLT-4 leukemia) was 2.16 µM, the TGI (MOLT-4 leukemia) was 5.89 µM and the GI50 (NCI-H23 lung) was 2.95 µM. For the same compound, the TGI (NCI-H23 lung) was 11 µM, the GI50 (HT29 colon) was 3.9 µM and the TGI (HT29 colon) was 12.7 µM. It also gave a GI50 (OVCAR-8 ovarian) of 4.44 µM, a TGI (OVCAR-8 ovarian) of 18.7 µM and a GI50 (DU-145 prostate) of 3.99 µM. For the same compound, the TGI (DU-145 prostate) was 18.5 µM, the GI50 (SK-OV-3 ovarian) was 1.78 µM and the TGI (SK-OV-3 ovarian) was 5.31 µM. The GI50 (SR leukemia) was 1.56 µM, the TGI (SR leukemia) was 4.13 µM and the GI50 (SW-620 colon) was 2.48 µM. It also gave a TGI (SW-620 colon) of 11.3 µM, a GI50 (HCC-2998 colon) of 3.52 µM and a TGI (HCC-2998 colon) of 12.6 µM. It also gave a GI50 (RXF 393 renal) of 1.37 µM, a TGI (RXF 393 renal) of 4.39 µM and a GI50 (UACC-257 melanoma) of 8.47 µM. For the same compound, the TGI (UACC-257 melanoma) was 22 µM, the GI50 (SK-MEL-5 melanoma) was 2.94 µM and the TGI (SK-MEL-5 melanoma) was 9.26 µM. It also gave a GI50 (EKVX NSCLC) of 2.84 µM, a TGI (EKVX NSCLC) of 9.62 µM and a GI50 (HOP-92 NSCLC) of 2.86 µM. It also gave a TGI (HOP-92 NSCLC) of 8.51 µM, a GI50 (NCI-H460 lung) of 3 µM and a TGI (NCI-H460 lung) of 13.1 µM. For the same compound, the GI50 (M14 melanoma) was 2.77 µM, the TGI (M14 melanoma) was 10.9 µM and the GI50 (SNB-19 CNS) was 5.14 µM. The TGI (SNB-19 CNS) was 17.9 µM, the GI50 (KM12 colon) was 2.82 µM and the TGI (KM12 colon) was 13.3 µM. For the same compound, the GI50 (HL-60(TB) leukemia) was 2.72 µM, the TGI (HL-60(TB) leukemia) was 6.92 µM and the GI50 (K-562 leukemia) was 3.5 µM. The TGI (K-562 leukemia) was 19.9 µM, the GI50 (HCT-116 colon) was 2.58 µM and the TGI (HCT-116 colon) was 10.3 µM. The GI50 (BT-549 breast) was 2.1 µM, the TGI (BT-549 breast) was 5.19 µM and the GI50 (OVCAR-5 ovarian) was 3.15 µM. For the same compound, the TGI (OVCAR-5 ovarian) was 13.7 µM, the GI50 (OVCAR-3 ovarian) was 4.15 µM and the TGI (OVCAR-3 ovarian) was 14.6 µM. For the same compound, the GI50 (CAKI-1 renal) was 3.3 µM, the TGI (CAKI-1 renal) was 11.8 µM and the GI50 (SK-MEL-28 melanoma) was 3.79 µM. The TGI (SK-MEL-28 melanoma) was 14.2 µM, the GI50 (COLO 205 colon) was 3.24 µM and the TGI (COLO 205 colon) was 10.9 µM. For the same compound, the GI50 (U251 CNS) was 4.41 µM, the TGI (U251 CNS) was 17.6 µM and the GI50 (A549 NSCLC) was 3.54 µM. It also gave a TGI (A549 NSCLC) of 13 µM, a GI50 (OVCAR-4 ovarian) of 8.96 µM and a TGI (OVCAR-4 ovarian) of 21.2 µM. For the same compound, the GI50 (SN12C renal) was 3.31 µM, the TGI (SN12C renal) was 13.3 µM and the GI50 (A498 renal) was 2.32 µM. For the same compound, the TGI (A498 renal) was 6.77 µM, the GI50 (NCI-H522 lung) was 1.44 µM and the TGI (NCI-H522 lung) was 5.06 µM. For the same compound, the GI50 (ACHN renal) was 2.26 µM, the TGI (ACHN renal) was 11.6 µM and the GI50 (786-0 renal) was 2.95 µM. For the same compound, the TGI (786-0 renal) was 12.5 µM, the GI50 (SF-539 CNS) was 2.03 µM and the TGI (SF-539 CNS) was 6.54 µM. It also gave a GI50 (NCI-H226 lung) of 5.15 µM and a TGI (NCI-H226 lung) of 43.7 µM.
